Experimental data published in US8598114B2, “Antimicrobial compounds” (priority 2007, dated 2013).
Converted amounts (≈) assume the structure as drawn. Peptide text beside a SMILES is read from it. * marks the point of attachment. NHPhenethyl = c1ccc(CCN*)cc1

Experiments:
trypsin = assay: in vitro; assay type: in vitro ADME; settings: pH 8.6
Description: Measurements and Calculation of Peptide Half-Life
Each peptide was dissolved in a 0.1 M NH4HCO3 buffer (pH 6.5) to yield a final peptide concentration of 1 mg/ml. A trypsin solution was prepared by dissolving 1 mg of trypsin in 50 ml 0.1 M NH4HCO3 buffer (pH 8.2). For the stability determination, 250 μl freshly made trypsin solution and 250 μl peptide solution were incubated in 2 ml of 0.1 M NH4HCO3 buffer (pH 8.6) at 37° C. on a rocking table. Aliquots of 0.5 ml were sampled at different time intervals, diluted with 0.5 ml water:acetonitrile (60:40 v/v) containing 1% TFA and analysed by RP-HPLC as described above. Samples without trypsin addition taken at 0 h and after 20 h at 37° C. were used as negative controls. Integration of the peak area at 254 nm for samples taken during the first 5 hours of the assay was used to generate the τ1/2.

E. coli = assay: Minimal inhibitory concentration (Example 6); assay type: cell-based
S. aureus = assay: Minimal inhibitory concentration (Example 6); assay type: cell-based
MRSA = assay: Minimal inhibitory concentration (Example 6); assay type: cell-based
Str. pyogenes = assay: Minimal inhibitory concentration (Example 6); assay type: cell-based

Compound: N=C(N)NCCC[C@H](NC(=O)[C@H](Cc1ccc(-c2cccc3ccccc23)cc1)NC(=O)[C@@H](N)CCCNC(=N)N)C(=O)NCCc1ccccc1 [Compound 3]
- half-life at 0.1 mg/ml (trypsin; isolated enzyme trypsin): 20 h

Compound: CC(C)(C)c1cc(C(C)(C)C)c2[nH]c(C(C)(C)C)c(C[C@H](NC(=O)[C@@H](N)CCCNC(=N)N)C(=O)N[C@@H](CCCNC(=N)N)C(=O)NCCc3ccccc3Br)c2c1 [—(CH2)2—(2-BrPh), H-Arg-Tbt-Arg-NH(CH)2(2-Br-phenyl)]
- Minimal inhibitory concentration E. coli (E. coli): 6 µg/mL (≈ 6.92 µM)
- Minimal inhibitory concentration S. aureus (S. aureus): 3 µg/mL (≈ 3.46 µM)
- Minimal inhibitory concentration MRSA (MRSA): 3 µg/mL (≈ 3.46 µM)
- Minimal inhibitory concentration Str. pyogenes (Str. pyogenes): 3 µg/mL (≈ 3.46 µM)

Compound: N=C(N)NCCC[C@H](NC(=O)[C@H](Cc1ccc(-c2ccc(-c3ccccc3)cc2)cc1)NC(=O)[C@@H](N)CCCNC(=N)N)C(=O)NCCc1ccccc1 [Compound 5]
- half-life at 0.1 mg/ml (trypsin): > 24 h

Compound: N=C(N)NCCC[C@H](NC(=O)[C@H](Cc1c[nH]c2ccccc12)NC(=O)[C@@H](N)CCCNC(=N)N)C(=O)NCCc1ccccc1 [Compound 6, reference compound] (H-Arg-Trp-Arg-NHPhenethyl)
- half-life at 0.1 mg/ml (trypsin; isolated enzyme trypsin): 7 h
